In brackets after ≈: the same amount, converted by molar mass. Where two headings read alike, the source gives them in different places.
Tests used:
Bacteroides non fragilis = assay: Agar dilution MIC, 29 clinical isolates; type: cell-based, Bacteroides spp.; conditions: 29 Bacteroides non-fragilis clinical isolates
Escherichia coli = assay: Broth microdilution MIC, 50 clinical isolates (incl. ESBL, one NDM-1); type: cell-based
Description: (§1) Minimal inhibitory concentration (MIC) values were determined by broth microdilution or agar dilution in accordance with guidelines from the Clinical and Laboratory Standards Institute (CLSI; (1) “Methods for Dilution Antimicrobial Susceptibility Tests for Bacteria That Grow Aerobically; Approved Standard; 11th ed.” CLSI standard M07-A11, 2018; (2) “Performance Standards for Antimicrobial Susceptibility Testing; Twenty-Eighth Informational Supplement,” CLSI document M100-S28, 2018; and (3) “Methods for Antimicrobial Susceptibility Testing of Anaerobic Bacteria; Approved Standard—Eighth Edition,” CLSI document M11-A8, 2012).
(§2) Tested aerobically by broth microdilution: • Escherichia coli, n=50 • Klebsiella spp., n=50 • Pseudomonas aeruginosa, n=50 • Streptococcus spp., n=50 • Staphylococcus aureus, n=50 • Enterococcus faecalis, n=50 • Enterobacter aerogenes, n=50 • Proteus mirabilis, n=50
(§3) Broth microdilution testing of aerobic bacteria was conducted in cation-adjusted Mueller Hinton broth (MHBII). For testing streptococci, lysed horse blood (LHB) was added to MHBII broth at a final concentration of 3%. Where LHB was used, it was added after filtering.
(§4) Broth microdilution susceptibility testing in 96-well microplates was conducted in accordance with CLSI methods (1) and (2). Automated liquid handlers were used to conduct serial dilutions and liquid transfers, including the Multidrop 384 (Labsystems, Helsinki, Finland), Biomek 2000, and the Biomek FX (Beckman Coulter, Fullerton, Calif.). All wells in columns 2 through 12 of a standard 96-well microdilution plate (Costar 3795) were filled with 150 μL of the appropriate diluent. Then, 300 μL of the test agents were added to the wells of column 1 of the plates at 100× the highest final concentration to be tested. Serial two-fold dilutions were made across the rows through column 11 using the Biomek 2000. The wells of column 12 contained no drug and served as the growth control wells. This plate served as the “mother plate” from which MIC assay plates or “daughter plates” were made.
(§5) The daughter plates were loaded with 190 μL per well of the appropriate medium using the Multidrop 384. The daughter plates were created using the Biomek FX which transferred 2 μL of drug solution from each well of a mother plate to each corresponding well of the daughter plate in a single step. A standardized inoculum of each test organism was prepared per CLSI methods (1) to equal a 0.5 McFarland standard, followed by a dilution of 1:20 for aerobes and 1:10 for anaerobes. The plates were then inoculated with 10 μL of the diluted inoculum using the Biomek 2000 from low to high drug concentration, resulting in a final concentration of approximately 5×10^5 CFU/mL per well. An un-inoculated plate was incubated in parallel for each medium for the purpose of assessing solubility of the drug in the test media.
(§6) Inoculated plates were stacked 3 or 4 high, covered with a sterile lid on the top plate, placed into boxes with CO2 planchets (streptococci) or plastic bags (all other isolates). Plates were incubated at 35° C. for 16-24 hr in ambient air for aerobes or for 42-48 hr in the anaerobic environment of the Bactron II anaerobe chamber (Sheldon Manufacturing Co.; Cornelius, Oreg.). Following incubation, the microplates were removed from the incubator and viewed from the bottom using a plate viewer. The MIC values were read and recorded as the lowest concentration of drug that inhibited visible growth of the organism as per CLSI methods (1) and (2).

Klebsiella spp. = assay: Broth microdilution MIC, 50 clinical isolates (20 K. oxytoca, 30 K. pneumoniae); type: cell-based
Description: as §1, §2, §3, §4, §5, §6

[1] = test system: E. coli ATCC 35218 (TEM-1 β-lactamase producer); assay: Broth microdilution MIC (time-kill study); type: cell-based, Escherichia coli; conditions: E. coli ATCC 35218
E. coli MMX 1312 = assay: Broth microdilution MIC (time-kill study); type: cell-based, Escherichia coli; conditions: E. coli MMX 1312

Cc1ncc([N+](=O)[O-])n1CCO [MTZ]
% I (Bacteroides non fragilis): 3% | % S (Bacteroides non fragilis): 97% | MIC50 (Bacteroides non fragilis): 0.5 µg/mL (≈ 2.92 µM) | MIC90 (Bacteroides non fragilis): 2 µg/mL (≈ 11.7 µM) | Mode (Bacteroides non fragilis; modal MIC): 0.5 µg/mL

COc1c(N2C[C@@H]3CCCN[C@@H]3C2)c(F)cc2c(=O)c(C(=O)O)cn(C3CC3)c12 [moxifloxacin]
MIC range (Escherichia coli): 0.015 to 128 µg/mL | Mode (Escherichia coli): 0.03 µg/mL | Cumulative percentage of isolates inhibited at MIC (Escherichia coli; 0.015 μg/mL): 4.0% | Number of test isolates at MIC (Escherichia coli; 0.015 μg/mL): 2 | Cumulative percentage of isolates inhibited at MIC (Escherichia coli; 0.03 μg/mL): 34.0% | Number of test isolates at MIC (Escherichia coli; 0.03 μg/mL): 15 | Cumulative percentage of isolates inhibited at MIC (Escherichia coli; 0.06 μg/mL): 52.0% | Number of test isolates at MIC (Escherichia coli; 0.06 μg/mL): 9 | Cumulative percentage of isolates inhibited at MIC (Escherichia coli; 0.5 μg/mL): 60.0% | Number of test isolates at MIC (Escherichia coli; 0.5 μg/mL): 2 | Cumulative percentage of isolates inhibited at MIC (Escherichia coli; 2 μg/mL): 64.0% | Number of test isolates at MIC (Escherichia coli; 2 μg/mL): 2 | Cumulative percentage of isolates inhibited at MIC (Escherichia coli; 4 μg/mL): 66.0% | Number of test isolates at MIC (Escherichia coli; 4 μg/mL): 1 | Cumulative percentage of isolates inhibited at MIC (Escherichia coli; 8 μg/mL): 70.0% | Number of test isolates at MIC (Escherichia coli; 8 μg/mL): 2 | Cumulative percentage of isolates inhibited at MIC (Escherichia coli; 16 μg/mL): 88.0% | Number of test isolates at MIC (Escherichia coli; 16 μg/mL): 9 | Cumulative percentage of isolates inhibited at MIC (Escherichia coli; 32 μg/mL): 98.0% | Number of test isolates at MIC (Escherichia coli; 32 μg/mL): 5 | Cumulative percentage of isolates inhibited at MIC (Escherichia coli; 128 μg/mL): 100.0% | Number of test isolates at MIC (Escherichia coli; 128 μg/mL): 1 | MIC50 (Escherichia coli; Escherichia coli, read-out: MIC50): 0.06 µg/mL (≈ 0.149 µM) | MIC90 (Escherichia coli; Escherichia coli, read-out: MIC90): 32 µg/mL (≈ 79.7 µM) | Number of test isolates at MIC (Escherichia coli; […]): 1 | MIC range (Klebsiella spp.): 0.015 to 128 µg/mL | Mode (Klebsiella spp.): 0.06 µg/mL | Cumulative percentage of isolates at MIC (Klebsiella spp.; 0.015 μg/mL): 2.0% | Number of test isolates at MIC (Klebsiella spp.; 0.015 μg/mL): 1 | Cumulative percentage of isolates at MIC (Klebsiella spp.; 0.03 μg/mL): 8.0% | Number of test isolates at MIC (Klebsiella spp.; 0.03 μg/mL): 3 | Cumulative percentage of isolates at MIC (Klebsiella spp.; 0.06 μg/mL): 56.0% | Number of test isolates at MIC (Klebsiella spp.; 0.06 μg/mL): 24 | Cumulative percentage of isolates at MIC (Klebsiella spp.; 0.5 μg/mL): 77.0% | Number of test isolates at MIC (Klebsiella spp.; 0.5 μg/mL): 2 | Cumulative percentage of isolates at MIC (Klebsiella spp.; 1 μg/mL): 74.0% | Number of test isolates at MIC (Klebsiella spp.; 1 μg/mL): 1 | Cumulative percentage of isolates at MIC (Klebsiella spp.; 2 μg/mL): 80.0% | Number of test isolates at MIC (Klebsiella spp.; 2 μg/mL): 3 | Cumulative percentage of isolates at MIC (Klebsiella spp.; 4 μg/mL): 84.0% | Number of test isolates at MIC (Klebsiella spp.; 4 μg/mL): 2 | Cumulative percentage of isolates at MIC (Klebsiella spp.; 16 μg/mL): 88.0% | Number of test isolates at MIC (Klebsiella spp.; 16 μg/mL): 2 | Cumulative percentage of isolates at MIC (Klebsiella spp.; 32 μg/mL): 94.0% | Number of test isolates at MIC (Klebsiella spp.; 32 μg/mL): 3 | Cumulative percentage of isolates at MIC (Klebsiella spp.; 64 μg/mL): 96.0% | Number of test isolates at MIC (Klebsiella spp.; 64 μg/mL): 1 | Cumulative percentage of isolates at MIC (Klebsiella spp.; 128 μg/mL): 100.0% | Number of test isolates at MIC (Klebsiella spp.; 128 μg/mL): 2 | MIC50 (Klebsiella spp.; Klebsiella, read-out: MIC50): 0.06 µg/mL (≈ 0.149 µM) | MIC90 (Klebsiella spp.; Klebsiella, read-out: MIC90): 32 µg/mL (≈ 79.7 µM)

CN[C@H](CC(C)C)C(=O)N[C@H]1C(=O)N[C@@H](CC(N)=O)C(=O)N[C@H]2C(=O)N[C@H]3C(=O)N[C@H](C(=O)N[C@H](C(=O)O)c4cc(O)cc(O)c4-c4cc3ccc4O)[C@H](O)c3ccc(c(Cl)c3)Oc3cc2cc(c3O[C@@H]2O[C@H](CO)[C@@H](O)[C@H](O)[C@H]2O[C@H]2C[C@](C)(N)[C@H](O)[C@H](C)O2)Oc2ccc(cc2Cl)[C@H]1O [vancomycin, Vancomycin]
MIC ([1]; Escherichia coli, ATCC35218, read-out: MIC): > 16 µg/mL | MIC (E. coli MMX 1312; Escherichia coli, MMX1312, read-out: MIC): > 16 µg/mL

piperacillin/tazobactam [piperacillin-tazobactam]
% I (Escherichia coli): 12% ^ | % R (Escherichia coli): 8% | % S (Escherichia coli): 80% | MIC50 (Escherichia coli): 2 µg/mL | MIC90 (Escherichia coli): 64 µg/mL | Mode (Escherichia coli): 2 µg/mL | Cumulative percentage of isolates inhibited at MIC (Escherichia coli; 0.5 μg/mL): 6.0% | Number of test isolates at MIC (Escherichia coli; 0.5 μg/mL): 2 | Cumulative percentage of isolates inhibited at MIC (Escherichia coli; 1 μg/mL): 26.0% | Number of test isolates at MIC (Escherichia coli; 1 μg/mL): 10 | Cumulative percentage of isolates inhibited at MIC (Escherichia coli; 2 μg/mL): 64.0% | Number of test isolates at MIC (Escherichia coli; 2 μg/mL): 19 | Cumulative percentage of isolates inhibited at MIC (Escherichia coli; 4 μg/mL): 74.0% | Number of test isolates at MIC (Escherichia coli; 4 μg/mL): 5 | Cumulative percentage of isolates inhibited at MIC (Escherichia coli; 8 μg/mL): 78.0% | Number of test isolates at MIC (Escherichia coli; 8 μg/mL): 2 | Cumulative percentage of isolates inhibited at MIC (Escherichia coli; 16 μg/mL): 80.0% | Number of test isolates at MIC (Escherichia coli; 16 μg/mL): 1 | Cumulative percentage of isolates inhibited at MIC (Escherichia coli; 32 μg/mL): 86.0% | Number of test isolates at MIC (Escherichia coli; 32 μg/mL): 3 | Cumulative percentage of isolates inhibited at MIC (Escherichia coli; 64 μg/mL): 92.0% | Number of test isolates at MIC (Escherichia coli; 64 μg/mL): 3 | Cumulative percentage of isolates inhibited at MIC (Escherichia coli; 128 μg/mL): 96.0% | Number of test isolates at MIC (Escherichia coli; 128 μg/mL): 2 | Cumulative percentage of isolates inhibited at MIC (Escherichia coli; >128 μg/mL): 100.0% | Number of test isolates at MIC (Escherichia coli; >128 μg/mL): 2 | Cumulative percentage of isolates inhibited at MIC (Escherichia coli; ≤[…]): 2.0% | Number of test isolates at MIC (Escherichia coli; ≤[…]): 1 | MIC [1]: 2/4 | % I (Klebsiella spp.): 2% | % R (Klebsiella spp.): 24% | % S (Klebsiella spp.): 74% | MIC50 (Klebsiella spp.): 4 µg/mL | MIC90 (Klebsiella spp.): >128 µg/mL | Mode (Klebsiella spp.): 2 µg/mL | Cumulative percentage of isolates at MIC (Klebsiella spp.; 0.5 μg/mL): 4.0% | Number of test isolates at MIC (Klebsiella spp.; 0.5 μg/mL): 2. | Cumulative percentage of isolates at MIC (Klebsiella spp.; 1 μg/mL): 14.0% | Number of test isolates at MIC (Klebsiella spp.; 1 μg/mL): 5 | Cumulative percentage of isolates at MIC (Klebsiella spp.; 2 μg/mL): 48.0% | Number of test isolates at MIC (Klebsiella spp.; 2 μg/mL): 17 | Cumulative percentage of isolates at MIC (Klebsiella spp.; 4 μg/mL): 58.0% | Number of test isolates at MIC (Klebsiella spp.; 4 μg/mL): 5 | Cumulative percentage of isolates at MIC (Klebsiella spp.; 8 μg/mL): 68.0% | Number of test isolates at MIC (Klebsiella spp.; 8 μg/mL): 5 | Cumulative percentage of isolates at MIC (Klebsiella spp.; 16 μg/mL): 74.0% | Number of test isolates at MIC (Klebsiella spp.; 16 μg/mL): 3 | Cumulative percentage of isolates at MIC (Klebsiella spp.; 64 μg/mL): 76.0% | Number of test isolates at MIC (Klebsiella spp.; 64 μg/mL): 1 | Cumulative percentage of isolates at MIC (Klebsiella spp.; 128 μg/mL): 78.0% | Number of test isolates at MIC (Klebsiella spp.; 128 μg/mL): 1 | Cumulative percentage of isolates at MIC (Klebsiella spp.; >128 μg/mL): 100.0% | Number of test isolates at MIC (Klebsiella spp.; >128 μg/mL): 11 | MIC (E. coli MMX 1312): 16/4

— patent US20210386367A1, “DEVICES AND SYSTEMS FOR GASTROINTESTINAL MICROBIOME DETECTION AND MANIPULATION” (Progenity, Inc., priority 2018, published 2021)
